Our source for the EC50 values is patent publication US10344019B2 (priority 2010, dated 2019).

Like-named read-outs stand apart in the source and are kept apart here. A value given as a limit tells only on which side of the number the result lay.

Common to all, as to assay: microbe, parasite or virus in culture
Common to all, as to assay type: cell-based

Test [1] deals with HCV 2a JFH-1 Rluc cells (dicistronic genotype 2a JFH-1 replicon, RLuc reporter). The settings on record: genotype 2a JFH-1 replicon, read-out: 2a JFH. On the procedure: (§1) Evaluation of cell-based anti-HCV activity: Antiviral potency (EC50) was determined using a Renilla luciferase (RLuc)-based HCV replicon reporter assay. To perform the assay for genotype 1 and 2a JFH-1, HCV 1b RLuc cells (harboring a dicistronic genotype 1b Con1 replicon that encodes a RLuc reporter), or HCV 1a RLuc cells (harboring a dicistronic genotype 1a H77 replicon that encodes a RLuc reporter), or HCV 2a JFH-1 Rluc cells (harboring a dicistronic genotype 2a JFH-1 replicon that encodes a RLuc reporter) were dispensed into 384-well plates. To perform the assay for genotype 2a (with M31 present) or 2b, HCV 2a Rluc or 2b Rluc cells (both with M31 present) harboring a dicistronic NS5A chimeric genotype 2a JFH-1 replicon that encodes a RLuc reporter and either genotype 2a J6 strain NS5A gene or genotype 2b MD2b-1 NS5A gene (based on Los Alamos HCV database isolates, both with M31 present) respectively, were dispensed into 384-well plates. To perform the assay for genotype 3 and 4, HCV 3a RLuc or 4a Rluc cells harboring a dicistronic NS5A chimeric genotype 1b Con1 replicon that encodes a RLuc reporter and either a consensus genotype 3a NS5A gene or genotype 4a NS5A gene (based on Los Alamos HCV database isolates) respectively, were dispensed into 384-well plates. Compounds were re-suspended in DMSO at a concentration of 10 mM and serially diluted in DMSO either manually or using an automated pipeting instrument. Serially diluted compounds were mixed with cell culture media and added to the seeded cells. […] 72 hours later, cells were lysed and Renilla luciferase activity quantified as recommended by the manufacturer (Promega-Madison, Wis.). Non-linear regression was performed to calculate EC50 values.
In general terms: A replicon is a self-replicating genome or part of one, used to study replication in cells.

The subject of test [2] is HCV 3a RLuc cells (NS5A chimeric genotype 1b Con1 replicon with consensus genotype 3a NS5A gene). On the procedure: as §1
The subject of test [3] is HCV 1b RLuc cells (dicistronic genotype 1b Con1 replicon, RLuc reporter). On the procedure: as §1
The test system of test [4] is HCV 1a RLuc cells (dicistronic genotype 1a H77 replicon, RLuc reporter). The settings on record: genotype 1a H77 replicon, read-out: 1a. As for the experimental part:
as §1

Where [5] appears, read: Hepatitis C virus, RLuc reporter.
Setting [6] is: Hepatitis C virus, read-out: 3a, genotype 3a NS5A chimeric 1b Con1 replicon.
The mark [7] stands for this setting: Hepatitis C virus, read-out: 1b (nM).
The mark [8] stands for this setting: Hepatitis C virus, 72 h, Table 2, 72 hours.
The mark [9] stands for this setting: Hepatitis C virus, read-out: 3a, Table 2, genotype 3a NS5A chimeric replicon.
Setting [10] is: Hepatitis C virus, 72 h, read-out: 1b (nM).
Where [11] appears, read: read-out: 3a, genotype 3a NS5A chimeric 1b Con1 replicon.

For `COC(=O)N[C@H](C(=O)N1CCC[C@H]1c1ncc(-c2ccc3cc(-c4ccc(-c5cnc([C@@H]6CCCN6C(=O)[C@H](NC(=O)OC)c6cccnc6)[nH]5)cc4)ccc3c2)[nH]1)C(C)C` [Example 161], the EC50 in test [1] (setting [5]) was 1 to 999 pM; in test [2] (setting [6]) it was 1 to 990 pM; in test [3] (setting [7]) it was 0.019 nM; in test [4] (setting [5]), 1 to 999 pM.

On to `COC(=O)N[C@H](C(=O)N1CCC[C@H]1c1ncc(-c2ccc(-c3ccc4cc(-c5cnc([C@@H]6C[C@H](C#N)CN6C(=O)[C@@H](c6ccccc6)N(C)C)[nH]5)ccc4c3)cc2)[nH]1)C(C)C` [Example 118], for which the EC50 in test [1] (setting [5]) is 1 to 999 pM; in test [2] (setting [6]), 1 to 990 pM; in test [3] (setting [7]), 0.027 nM; in test [4] (setting [5]), 1 to 999 pM.

For `CCO[C@H]1C[C@@H](c2ncc(-c3ccc(-c4ccc5cc(-c6cnc([C@@H]7CCCN7C(=O)[C@@H](NC(=O)OC)C(C)C)[nH]6)ccc5c4)cc3)[nH]2)N(C(=O)[C@@H](c2ccccc2)N(C)C)C1` [Example 158], the EC50 in test [1] (setting [5]) was 1 to 999 pM; in test [2] (setting [6]), 1 to 990 pM; in test [3] (setting [7]), 0.01 nM; in test [4] (setting [5]) it was 1 to 999 pM.

As to `COC(=O)N[C@H](C(=O)N1CCC[C@H]1c1ncc(-c2ccc3cc(-c4ccc(-c5cnc([C@]6(F)CCCN6C(=O)[C@H]6c7ccccc7CCN6C)[nH]5)cc4)ccc3c2)[nH]1)C(C)C` [Example 152], the EC50 in test [1] (setting [5]) was > 44000 pM; in test [2] (setting [6]) it was 1000 to 4990 pM; in test [3] (setting [7]) it was 0.751 nM; in test [4] (setting [5]) it was > 44000 pM.

`COC(=O)N[C@H](C(=O)N1CCC[C@H]1c1ncc(-c2ccc3cc(C#Cc4cnc([C@@H]5CCCN5C(=O)[C@H](NC(=O)OC)c5ccccc5)[nH]4)ccc3c2)[nH]1)C(C)C` [Example 115]: the EC50 in test [1] (setting [5]) is 1 to 999 pM; in test [2] (setting [6]) it was 1 to 990 pM; in test [3] (setting [7]), 0.019 nM; in test [4] (setting [5]), 1 to 999 pM.

For the compound `COC(=O)N[C@H](C(=O)N1CC2(CC2)C[C@H]1c1ncc(-c2ccc3c(c2)C(F)(F)c2cc(-c4cnc([C@@H]5[C@H]6CC[C@H](C6)N5C(=O)[C@H](NC(=O)OC)c5ccccc5)[nH]4)ccc2-3)[nH]1)C(C)C` [Example 37], the EC50 in test [1] (setting [8]) is 1000 to 44000 pM; in test [2] (setting [9]), 1 to 990 pM; in test [3] (setting [10]), 0.004 nM; in test [4] (setting [8]) it was 1 to 999 pM.

For `COC(=O)N(C)[C@H](C(=O)N1CCC[C@H]1c1ncc(-c2ccc3cc(-c4ccc(-c5cnc([C@@H]6CCCN6C(=O)C(c6ccccc6)N6CCOCC6)[nH]5)cc4)ccc3c2)[nH]1)C(C)C` (stereo partly drawn) [Example 119], the EC50 is 1 to 999 pM in test [1] (setting [5]), 1 to 990 pM in test [2] (setting [6]), 0.02 nM in test [3] (setting [7]) and 1 to 999 pM in test [4] (setting [5]).

With `COC(=O)N[C@H](C(=O)N1[C@@H]2CC[C@@H](C2)[C@H]1c1ncc(-c2ccc(-c3ccc4cc(-c5cnc([C@@H]6CC7(CC7)CN6C(=O)C(c6ccccc6)N6CCOCC6)[nH]5)ccc4c3)cc2)[nH]1)C(C)C` (stereo partly drawn) [Example 28], the EC50 in test [1] (setting [8]) was 1000 to 44000 pM; in test [2] (setting [9]), 1 to 990 pM; in test [3] (setting [10]), 0.023 nM; in test [4] (setting [8]), 1000 to 44000 pM.

Consider `COC(=O)N[C@H](C(=O)N1CCC[C@H]1c1ncc(-c2ccc3cc(-c4ccc(-c5cnc([C@@H]6C[C@@H](C)CN6C(=O)[C@H](NC(=O)OC)c6ccccc6)[nH]5)cc4)ccc3c2)[nH]1)C1CCOCC1` [Example 188], for which the EC50 in test [1] (setting [5]) was 1 to 999 pM; in test [2] (setting [6]), 1 to 990 pM; in test [3] (setting [7]), 0.012 nM; in test [4] (setting [5]), 1 to 999 pM.

Consider `CCN(CC)[C@@H](C(=O)N1CCC[C@H]1c1ncc(-c2ccc(-c3ccc4cc(-c5cnc([C@@H]6CCCN6C(=O)[C@@H](NC(=O)OC)C6CCOCC6)[nH]5)ccc4c3)cc2)[nH]1)c1ccccc1` [Example 171], for which the EC50 in test [1] (setting [5]) is 1 to 999 pM; in test [2] (setting [6]), 1 to 990 pM; in test [3] (setting [7]), 0.026 nM; in test [4] (setting [5]), 1 to 999 pM.

For the compound `COC(=O)N[C@H](C(=O)N1CCC[C@H]1c1ncc(-c2ccc3cc(-c4ccc(-c5cnc([C@@H]6CCCN6C(=O)[C@@](C)(NC(=O)OC)c6ccccc6)[nH]5)cc4)ccc3c2)[nH]1)C(C)C` [Example 163], the EC50 is 1000 to 44000 pM in test [1] (setting [5]), > 5000 pM in test [2] (setting [6]), 0.031 nM in test [3] (setting [7]) and 1000 to 44000 pM in test [4] (setting [5]).

With `COC(=O)N[C@H](C(=O)N1CCC[C@H]1c1ncc(-c2ccc3cc(-c4ccc5c(c4)OCc4nc([C@@H]6CCCN6C(=O)[C@H](NC(=O)OC)c6ccccc6)[nH]c4-5)ccc3c2)[nH]1)C(C)C` [Example 172], the EC50 is 1 to 999 pM in test [1] (setting [5]), 1 to 990 pM in test [2] (setting [6]), 0.011 nM in test [3] (setting [7]) and 1 to 999 pM in test [4] (setting [5]).

For the compound `CCN(CC)[C@@H](C(=O)N1CCC[C@H]1c1ncc(-c2ccc3cc(-c4ccc(-c5cnc([C@@H]6CC7(COCO7)CN6C(=O)[C@@H](NC(=O)OC)C(C)C)[nH]5)cc4)ccc3c2)[nH]1)c1ccccc1` (stereo partly drawn) [Example 36], the EC50 in test [1] (setting [8]) was 1 to 999 pM; in test [2] (setting [9]), 1 to 990 pM; in test [3] (setting [10]), 0.01 nM; in test [4] (setting [8]) it was 1 to 999 pM.

For the compound `COC(=O)N[C@H](C(=O)N1CCC[C@H]1c1ncc(-c2ccc(-c3ccc(-c4ccc(-c5cnc([C@@H]6CCCN6C(=O)[C@H](NC(=O)OC)c6ccccc6)[nH]5)cc4)cc3)cc2)[nH]1)C(C)C` [Example 193], the EC50 in test [1] (RLuc reporter) was 1 to 999 pM; in test [2] (setting [11]), 1 to 990 pM; in test [3] (read-out: 1b), 0.005 nM; in test [4] (RLuc reporter) it was 1 to 999 pM.

In the case of `COC(=O)N[C@H](C(=O)N1CCC[C@H]1c1ncc(-c2ccc(-c3ccc4cc(-c5cnc([C@@H]6CCCN6C(=O)[C@H](NC(=O)OC)c6ccccc6)[nH]5)ccc4c3)cc2)[nH]1)C(C)C` [Example 27], the EC50 in test [1] (Table 2, 72 hours) is 1 to 999 pM; in test [2] (read-out: 3a, Table 2, genotype 3a NS5A chimeric replicon), 1 to 990 pM; in test [3] (read-out: 1b) it was 0.011 nM; in test [4] (Table 2, 72 hours), 1 to 999 pM.

`COC(=O)N[C@H](C(=O)N1C[C@@H](C#N)C[C@H]1c1ncc(-c2ccc3cc(-c4ccc(-c5cnc([C@@H]6CCCN6C(=O)[C@@H](c6ccccc6)N(C)C)[nH]5)cc4)ccc3c2)[nH]1)C(C)C` [Example 137]: the EC50 in test [1] (setting [5]) was 1 to 999 pM; in test [2] (setting [6]), 1 to 990 pM; in test [3] (setting [7]), 0.012 nM; in test [4] (setting [5]), 1 to 999 pM.

As to `COC(=O)N[C@@H](CC(F)F)C(=O)N1CCC[C@H]1c1ncc(-c2ccc3cc(-c4ccc(-c5cnc([C@@H]6CCCN6C(=O)[C@H](NC(=O)OC)c6ccccc6)[nH]5)cc4)ccc3c2)[nH]1` [Example 127], the EC50 in test [1] (setting [5]) was 1 to 999 pM; in test [2] (setting [6]), 1 to 990 pM; in test [3] (setting [7]) it was 0.006 nM; in test [4] (setting [5]), 1 to 999 pM.

As to `CCN[C@@H](C(=O)N1CCC[C@H]1c1nc(-c2ccc(-c3ccc4cc(-c5c[nH]c([C@@H]6CCCN6C(=O)[C@@H](NC(=O)OC)C(C)C)n5)ccc4c3)cc2)c[nH]1)c1ccccc1` [Example 165], the EC50 is 1 to 999 pM in test [1] (setting [5]), 1 to 990 pM in test [2] (setting [6]), 0.009 nM in test [3] (setting [7]) and 1 to 999 pM in test [4] (setting [5]).

Turning to `COC(=O)N[C@H](C(=O)N1CCC[C@H]1c1ncc(-c2nc3cc4sc(-c5cnc([C@@H]6CCCN6C(=O)[C@@H](NC(=O)OC)C(C)C)[nH]5)nc4cc3s2)[nH]1)C(C)C` [Example 141], the EC50 was 1000 to 44000 pM in test [1] (setting [5]), > 5000 pM in test [2] (setting [6]), 0.181 nM in test [3] (setting [7]) and 1000 to 44000 pM in test [4] (setting [5]).

Turning to `COC(=O)N[C@H](C(=O)N1CCC[C@H]1c1ncc(-c2ccc3cc(-c4ccc(-c5cnc([C@@H]6CCCN6C(=O)[C@H](NC(=O)OC)c6ccccc6F)[nH]5)cc4)ccc3c2)[nH]1)C(C)C` [Example 148], the EC50 was 1 to 999 pM in test [1] (setting [5]), 1000 to 4990 pM in test [2] (setting [11]), 0.02 nM in test [3] (read-out: 1b) and 1 to 999 pM in test [4] (setting [5]).

In the case of `COC(=O)N[C@H](C(=O)N1[C@@H]2CC[C@@H](C2)[C@H]1c1ncc(-c2ccc(-c3ccc4c(ccc5nc([C@@H]6CCCN6C(=O)[C@@H](NC(=O)OC)C6CCOCC6)[nH]c54)c3)cc2)[nH]1)C(C)C` [Example 82], the EC50 in test [1] (setting [8]) is 1 to 999 pM; in test [2] (setting [9]), 1 to 990 pM; in test [3] (setting [10]) it was 0.042 nM; in test [4] (setting [8]), 1 to 999 pM.
